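Five concentrations, 48 hours, 96-well plates. Here, GI50 denotes the concentration required for 50% inhibition of growth.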 Calls of active or inactive are those of the source. No stated cut-off is given here; in the data, active = GI50 up to about 1.1 µM and inactive = higher.

What all share (assay): growth of human tumour cells (NCI), 48 h
The test system of assay [1] is HCT-116.
The test system of assay [2] is A549.
Assay [3] deals with T47D.
Assay [4] deals with NCI-H460.
The subject of assay [5] is SF-268.
Assay [6] deals with SK-OV-3.
For assay [7], the system named is MDA-N.
Assay [8] concerns NCI-H226.
Assay [9] deals with M14.
Assay [10] deals with PC-3.
Assay [11] relates to SK-MEL-5.
The subject of assay [12] is Hs-578T.
Assay [13] has as its system ACHN.
The subject of assay [14] is NCI-H522.
The test system of assay [15] is NCI-H23.
In assay [16] the test system is OVCAR-4.

Regarding `NC1=NCC(CN2CCCCC2)O1` (centres undefined), the GI50 was > 100 µM (inactive) in [1]; > 100 µM (inactive) in assay [2]; > 100 µM (inactive) in assay [3]; > 100 µM (inactive) in [4]; > 100 µM (inactive) in [5]; 4.12 µM (inactive) in assay [6]. For the same compound, the GI50 in assay [7], in assay [8], in assay [9], in assay [10], in assay [11] and in assay [12] was > 100 µM (inactive) each time. The GI50 in [13] and in assay [14] was > 100 µM (inactive) throughout.

Consider `CCOC(=O)CCC(NC(=O)C(N)c1ccc([N+](=O)[O-])cc1)C(=O)NC(CCC(=O)OCC)C(=O)OCC` (centres undefined), for which the GI50 in [1] was > 100 µM (inactive); in assay [2], > 100 µM (inactive); in assay [3] it was 35.6 µM (inactive); in assay [4], > 100 µM (inactive); in assay [7], > 100 µM (inactive); in assay [8] it was > 100 µM (inactive). The GI50 in assay [9], in assay [10], in assay [11], in assay [15], in assay [12] and in assay [13] was > 100 µM (inactive) throughout.

Turning to `N#Cc1c(C#N)c(-c2ccccc2)n(Cc2ccccc2)c1N`, the GI50 in assay [1] was > 100 µM (inactive); in assay [2], > 100 µM (inactive); in assay [3], > 100 µM (inactive); in assay [16], > 100 µM (inactive); in assay [5] it was 47.2 µM (inactive); in [6], > 100 µM (inactive). Also, the GI50 in [7], in assay [8], in assay [9], in assay [10], in [11] and in [15] was > 100 µM (inactive) each time. For the same compound, the GI50 was 25.6 µM (inactive) in [12], > 100 µM (inactive) in assay [13] and > 100 µM (inactive) in assay [14].

`COC(=O)c1c2c(cc3c1CC1(C3)Cc3cc4c(c(C(=O)OC)c3C1)CCC4)CCC2`: the GI50 in [1] is > 100 µM (inactive); in assay [2] it was > 100 µM (inactive); in assay [3], > 100 µM (inactive); in assay [16], 86.9 µM (inactive); in assay [6], > 100 µM (inactive); in assay [7], > 100 µM (inactive). For the same compound, the GI50 was > 100 µM (inactive) in assay [8]; > 100 µM (inactive) in assay [9]; > 100 µM (inactive) in assay [10]; > 100 µM (inactive) in assay [11]; > 100 µM (inactive) in assay [15]; 65.9 µM (inactive) in assay [12]. Further, the GI50 in assay [13] and in assay [14] was > 100 µM (inactive) throughout.

With `COC(=O)C[C@H](COCc1ccccc1)NC(=O)C[C@H](COCc1ccccc1)NC(=O)C[C@H](COCc1ccccc1)NC(=O)OC(C)(C)C`, the GI50 in assay [1] was 14.5 µM (inactive); in assay [2] it was 38.5 µM (inactive); in [3], 24.7 µM (inactive); in assay [16], 3.97 µM (inactive); in [5], 41.5 µM (inactive); in [6], 60.8 µM (inactive). The GI50 in assay [7] was > 100 µM (inactive); in assay [8], > 100 µM (inactive); in assay [9] it was 54.6 µM (inactive); in [10], 13.2 µM (inactive); in assay [11], > 100 µM (inactive); in [15], > 100 µM (inactive). For the same compound, the results for the GI50 in assay [12], in assay [13] and in assay [14] were 34.6 µM (inactive), 80.9 µM (inactive) and 78 µM (inactive), respectively.

As to `CSc1c(C#N)c(O)n(-c2ccc(C)cc2)c(=O)c1C#N`, the GI50 in assay [1], in assay [2], in assay [3], in assay [4], in assay [16] and in [5] was > 100 µM (inactive) in each case. In addition, the GI50 in assay [6], in assay [7], in [8], in assay [9], in assay [10] and in [11] was > 100 µM (inactive) throughout. Also, the GI50 in assay [15], in assay [12] and in assay [14] was > 100 µM (inactive) in each case.

As for `CC1CC(=O)N2CCCNC2=C1C#N` (centres undefined), the GI50 in [1], in assay [2], in assay [3], in assay [4], in [16] and in assay [5] was > 100 µM (inactive) in each case. The GI50 in assay [6], in [7], in assay [8], in [9], in assay [10] and in [11] was > 100 µM (inactive) each time. In addition, the GI50 in [15], in assay [12] and in [14] was > 100 µM (inactive) in each case.

In the case of `Nc1nc(Cl)cc(NC2(CO)CCC2)n1`, the GI50 in assay [1], in assay [2], in [3], in assay [4], in assay [16] and in assay [5] was > 100 µM (inactive) in each case. Moreover, the GI50 in assay [7], in assay [8], in assay [10], in [11], in assay [15] and in [12] was > 100 µM (inactive) each time. The GI50 in assay [13] and in assay [14] was > 100 µM (inactive) each time.

With `COc1ccc(/C=C2\Sc3nnc(CNc4ccc(Cl)cc4)n3N=C2c2cc(F)c(Cl)cc2Cl)cc1OC`, the GI50 in assay [1] is 14.8 µM (inactive); in assay [3], 44.3 µM (inactive); in assay [4] it was 53.6 µM (inactive); in [16] it was 22.5 µM (inactive); in assay [5] it was 20.6 µM (inactive); in assay [6], > 100 µM (inactive). The GI50 in assay [7] is 24 µM (inactive); in [8], > 100 µM (inactive); in [9] it was 59.8 µM (inactive); in assay [10] it was 67.1 µM (inactive); in assay [11] it was > 100 µM (inactive); in assay [15], 28.1 µM (inactive). Further, the GI50 in assay [12] is 51.2 µM (inactive); in assay [13] it was 48.4 µM (inactive); in assay [14], 27.7 µM (inactive).

On to `N=c1oc2ccc(Cl)cc2cc1C(=O)NC1CCCCC1`, for which the GI50 in assay [1] is 55.5 µM (inactive); in assay [2], 71.3 µM (inactive); in [3] it was 66.2 µM (inactive); in [4] it was 59.6 µM (inactive); in assay [16] it was > 100 µM (inactive); in assay [5], > 100 µM (inactive). Also, the GI50 in assay [6] was > 100 µM (inactive); in [7] it was 88.5 µM (inactive); in assay [8], 90.4 µM (inactive); in assay [9], > 100 µM (inactive); in assay [10], 68.5 µM (inactive); in assay [11], 84.3 µM (inactive). The GI50 in assay [15] is > 100 µM (inactive); in [12], 30.9 µM (inactive); in assay [13] it was > 100 µM (inactive).

Consider `C/C(=N\Nc1nc2ccccc2[nH]1)c1ccc2ccccc2n1`, for which the GI50 was 1.95 µM (inactive) in assay [1]; 2.52 µM (inactive) in assay [2]; 0.343 µM (active) in [3]; 2.25 µM (inactive) in assay [4]; 1.85 µM (inactive) in [16]; 1.97 µM (inactive) in assay [5]. Also, the GI50 was 8.87 µM (inactive) in assay [6]; 3.97 µM (inactive) in [7]; 1.24 µM (inactive) in assay [9]; 1.44 µM (inactive) in assay [10]; 1.46 µM (inactive) in assay [11]; 3.89 µM (inactive) in assay [15]. For the same compound, the GI50 in assay [12] was 10.8 µM (inactive); in [13] it was 3.15 µM (inactive); in [14], 2.33 µM (inactive).

As for `CO/C(=C/C(=O)C(Cl)(Cl)Cl)CC/C(=C\C(=O)C(Cl)(Cl)Cl)OC`, the GI50 in assay [1] was 18.8 µM (inactive); in [2], 47.4 µM (inactive); in [3], 25.4 µM (inactive); in assay [4], 29.1 µM (inactive); in [16] it was 19.1 µM (inactive); in assay [5] it was 26.1 µM (inactive). Besides, the GI50 is 30.4 µM (inactive) in [6]; 22.8 µM (inactive) in [7]; 28.2 µM (inactive) in assay [9]; 27.4 µM (inactive) in [10]; 34.2 µM (inactive) in assay [11]; 22.4 µM (inactive) in assay [15]. In addition, the GI50 was 35.9 µM (inactive) in [12], 24.5 µM (inactive) in [13] and 20.1 µM (inactive) in assay [14].

Regarding `CN(C)CCCNC(=O)c1c(O)c2ccccc2n(C)c1=O`, the GI50 was 44.1 µM (inactive) in assay [1]; 82.2 µM (inactive) in assay [2]; 71.3 µM (inactive) in [3]; 42 µM (inactive) in assay [4]; 78.3 µM (inactive) in assay [16]; 49.8 µM (inactive) in assay [5]. The GI50 in assay [6] was > 100 µM (inactive); in [7], 64.1 µM (inactive); in assay [8], 67 µM (inactive); in assay [10], 67.6 µM (inactive); in [11] it was 53.7 µM (inactive); in assay [15] it was > 100 µM (inactive). The results for the GI50 in [12], in assay [13] and in assay [14] were > 100 µM (inactive), 43.8 µM (inactive) and 61.8 µM (inactive), respectively.

(Values after ChEMBL document CHEMBL1201862, “PubChem BioAssay data set” (2004).)
